Common to all, as to assay: relative viability (nuclei count vs DMSO), 5 days (fraction); higher = more cells survive
Compound in assay [1]: Nc1ccn([C@@H]2O[C@H](CO)[C@@H](O)C2(F)F)c(=O)n1 [Gemcitabine] + CC(=O)c1c(C)c2cnc(Nc3ccc(N4CCNCC4)cn3)nc2n(C2CCCC2)c1=O [Palbociclib] (partner 0.5 µM)
The method in brief: (§1)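 Lung cancer cell lines in 1536-well plates got either a single drug or a fixed anchor-drug dose together with five library-drug doses (not always all listed) in √10 steps, by pin tool, on the day after seeding. Nuclei were counted after 5 days, and relative viability is the treated-to-vehicle ratio of nuclei counts. Values are medians of duplicate plates.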

Compound in the assay “Gemcitabine + Bortezomib”: Nc1ccn([C@@H]2O[C@H](CO)[C@@H](O)C2(F)F)c(=O)n1 [Gemcitabine] + CC(C)C[C@H](NC(=O)[C@H](Cc1ccccc1)NC(=O)c1cnccn1)B(O)O [Bortezomib] (partner 0.002 µM)
In short, it runs like this:
as §1

Compound in the assay “Gemcitabine + Dasatinib”: Nc1ccn([C@@H]2O[C@H](CO)[C@@H](O)C2(F)F)c(=O)n1 [Gemcitabine] + Cc1nc(Nc2ncc(C(=O)Nc3c(C)cccc3Cl)s2)cc(N2CCN(CCO)CC2)n1 [Dasatinib] (partner 0.075 µM)
In short, it runs like this:
as §1

Compound in the assay “Gemcitabine + Alpelisib”: Nc1ccn([C@@H]2O[C@H](CO)[C@@H](O)C2(F)F)c(=O)n1 [Gemcitabine] + Cc1nc(NC(=O)N2CCC[C@H]2C(N)=O)sc1-c1ccnc(C(C)(C)C(F)(F)F)c1 [Alpelisib] (partner 2 µM)
In short, it runs like this:
as §1

As to EPLC-272H, the relative viability in assay [1] (first compound 0.001 µM) was determined as 0.384; in assay [1] (first compound 0.003162 µM) it was 0.323; in assay [1] (first compound 0.01 µM), 0.275; in assay [1] (first compound 0.03162 µM) it was 0.244; in assay [1] (first compound 0.1 µM) it was 0.21; with Gemcitabine + Bortezomib (first compound 0.001 µM), 0.87. Also, the relative viability turned out to be 0.786 with Gemcitabine + Bortezomib (first compound 0.003162 µM); 0.419 with Gemcitabine + Bortezomib (first compound 0.01 µM); 0.358 in the assay with Gemcitabine + Bortezomib (first compound 0.03162 µM); 0.121 with Gemcitabine + Bortezomib (first compound 0.1 µM); 0.421 with Gemcitabine + Dasatinib (first compound 0.001 µM); 0.433 in the assay with Gemcitabine + Dasatinib (first compound 0.003162 µM). Moreover, the relative viability with Gemcitabine + Dasatinib (first compound 0.01 µM) was found to be 0.153; with Gemcitabine + Dasatinib (first compound 0.03162 µM) it was 0.112; with Gemcitabine + Dasatinib (first compound 0.1 µM) it was 0.0503; in the assay with Gemcitabine + Alpelisib (first compound 0.001 µM), 1.04; with Gemcitabine + Alpelisib (first compound 0.003162 µM) it was 0.809; with Gemcitabine + Alpelisib (first compound 0.01 µM), 0.541. Besides, the relative viability in the assay with Gemcitabine + Alpelisib (first compound 0.03162 µM) came out at 0.304; with Gemcitabine + Alpelisib (first compound 0.1 µM), 0.1.

Take NCI-H2023: the relative viability in assay [1] (first compound 0.001 µM) was determined as 0.354; in assay [1] (first compound 0.003162 µM), 0.39; in assay [1] (first compound 0.01 µM), 0.218; in assay [1] (first compound 0.03162 µM), 0.138; in assay [1] (first compound 0.1 µM), 0.0722; in the assay with Gemcitabine + Bortezomib (first compound 0.001 µM), 1.12. The relative viability with Gemcitabine + Bortezomib (first compound 0.003162 µM) came to 1.11; in the assay with Gemcitabine + Bortezomib (first compound 0.01 µM), 0.241; with Gemcitabine + Bortezomib (first compound 0.03162 µM), 0.104; with Gemcitabine + Bortezomib (first compound 0.1 µM), 0.0584; with Gemcitabine + Dasatinib (first compound 0.001 µM), 0.529; with Gemcitabine + Dasatinib (first compound 0.003162 µM) it was 0.533. Moreover, the relative viability with Gemcitabine + Dasatinib (first compound 0.01 µM) was 0.207; in the assay with Gemcitabine + Dasatinib (first compound 0.03162 µM) it was 0.0853; in the assay with Gemcitabine + Dasatinib (first compound 0.1 µM), 0.0604; with Gemcitabine + Alpelisib (first compound 0.001 µM), 0.703; in the assay with Gemcitabine + Alpelisib (first compound 0.003162 µM), 0.542; in the assay with Gemcitabine + Alpelisib (first compound 0.01 µM), 0.415. Besides, the relative viability with Gemcitabine + Alpelisib (first compound 0.03162 µM) amounted to 0.214; with Gemcitabine + Alpelisib (first compound 0.1 µM), 0.066.

On to BEN, for which the relative viability in assay [1] (first compound 0.001 µM) was determined as 0.448; in assay [1] (first compound 0.003162 µM), 0.38; in assay [1] (first compound 0.01 µM), 0.364; in assay [1] (first compound 0.03162 µM) it was 0.291; in assay [1] (first compound 0.1 µM), 0.273; in the assay with Gemcitabine + Bortezomib (first compound 0.001 µM) it was 0.79. Also, the relative viability was determined as 0.669 with Gemcitabine + Bortezomib (first compound 0.003162 µM); 0.198 in the assay with Gemcitabine + Bortezomib (first compound 0.01 µM); 0.118 with Gemcitabine + Bortezomib (first compound 0.03162 µM); 0.113 with Gemcitabine + Bortezomib (first compound 0.1 µM); 0.331 in the assay with Gemcitabine + Dasatinib (first compound 0.001 µM); 0.254 with Gemcitabine + Dasatinib (first compound 0.003162 µM). Further, the relative viability with Gemcitabine + Dasatinib (first compound 0.01 µM) came out at 0.18; with Gemcitabine + Dasatinib (first compound 0.03162 µM), 0.0876; with Gemcitabine + Dasatinib (first compound 0.1 µM), 0.109; with Gemcitabine + Alpelisib (first compound 0.001 µM), 1.09; with Gemcitabine + Alpelisib (first compound 0.003162 µM), 0.659; in the assay with Gemcitabine + Alpelisib (first compound 0.01 µM), 0.253. Also, the values for the relative viability in the assay with Gemcitabine + Alpelisib (first compound 0.03162 µM) and with Gemcitabine + Alpelisib (first compound 0.1 µM) were 0.117 and 0.0816, respectively.

Regarding COR-L 105, the relative viability came to 0.398 in assay [1] (first compound 0.001 µM); 0.4 in assay [1] (first compound 0.003162 µM); 0.366 in assay [1] (first compound 0.01 µM); 0.347 in assay [1] (first compound 0.03162 µM); 0.326 in assay [1] (first compound 0.1 µM); 0.867 with Gemcitabine + Bortezomib (first compound 0.001 µM). In addition, the relative viability worked out at 0.851 with Gemcitabine + Bortezomib (first compound 0.003162 µM); 0.479 with Gemcitabine + Bortezomib (first compound 0.01 µM); 0.23 with Gemcitabine + Bortezomib (first compound 0.03162 µM); 0.201 with Gemcitabine + Bortezomib (first compound 0.1 µM); 0.295 with Gemcitabine + Dasatinib (first compound 0.001 µM); 0.318 in the assay with Gemcitabine + Dasatinib (first compound 0.003162 µM). The relative viability with Gemcitabine + Dasatinib (first compound 0.01 µM) was 0.274; in the assay with Gemcitabine + Dasatinib (first compound 0.03162 µM), 0.198; with Gemcitabine + Dasatinib (first compound 0.1 µM), 0.154; in the assay with Gemcitabine + Alpelisib (first compound 0.001 µM) it was 1.22; with Gemcitabine + Alpelisib (first compound 0.003162 µM), 0.95; with Gemcitabine + Alpelisib (first compound 0.01 µM) it was 0.526. Further, the relative viability is 0.261 with Gemcitabine + Alpelisib (first compound 0.03162 µM) and 0.21 in the assay with Gemcitabine + Alpelisib (first compound 0.1 µM).

For the origin of these results see the supplement of paper PMC10307832.
